Two compounds from patent publication US5716949A, “Heterocyclic compounds” (Novo Nordisk A/S, priority 1995, dated 1998) can be followed below.

The assay in a line: Inhibition of formalin induced pain response in mice. It is filed as in vivo, mouse (NMRI female mice). The conditions noted are these: 0.1 mg/kg, 1% formalin into left hind paw. As to the method: Compounds of formula I may be used to treat all painful, hyperalgesic and/or inflammatory conditions in which C-fibers play a pathophysiological role by eliciting neurogenic pain or inflammation, i.e.: Formalin induced pain or paw oedema […] About 20 g NMRI female mice were injected […] 1% formalin into the left hind paw. The animals were then placed on a heated (31° C.) table, and the pain response was scored. After 1 h they were killed and bled. Left and right hind paws were removed and the weight difference between the paws was used as indication of the oedema response of the formalin injected paw. Values for inhibition of formalin induced pain response for some representative compounds are recorded in table 1.

Where a name gives a salt, the structure may show the parent alone.

With `Cl.O=C1Cc2ccccc2N(CCCN2CCC[C@@H](C(=O)O)C2)c2ccccc21` [Example 1, (R)-1-(3-(10-Oxo-10,11-dihydro-5H-dibenz[b,f]azepin-5-yl)-1-propyl)-3-piperidinecarboxylic acid hydrochloride], the “% Pain inhibition (inhibition of formalin induced pain response)” value stood at 21%.
For `O=C(O)[C@@H]1CCCN(CCC=C2c3ccccc3CSc3ccccc32)C1` [Example 3, (R)-1-(3-(6,11-Dihydro-dibenz[b,e]thiepin-11-yl)-1-propylidene)-3-piperidinecarboxylic acid hydrochloride] the value was 31%.
